{"source": "patent US4962224A", "about": "“N-naphthoylglycines as aldose reductase inhibitors” (American Home Products Corporation, priority 1989, dated 1990)", "key": {"[1]": {"tested_on": "Sciatic Nerve Polyol Accumulation", "assay": "Two-Week Streptozocin - Diabetic Rat Model, lowering of sciatic nerve polyol accumulation", "type": "in vivo, rat (Sprague-Dawley)", "conditions": "gavage, 14 days, STZ diabetic rats", "source_text": "A second in vivo model examined the effect of the compounds of the present invention on sorbitol accumulation in the tissues of 14-day streptozocin (STZ) (Upjohn) diabetic rats.\nIn each of the studies male Sprague-Dawley rats from Charles River Labs, Kingston, N.Y., weighing 200 to 250 g, were used. The animals were weighed and observed for 5 days prior to the start of the study.\nIn each study the rats were randomly assigned by weight into groups of 15 animals except for group I which contained 8 animals. The groups were treated as follows:\nGroup II: STZ, 110 mg/kg i.p.\nGroup IV: STZ, 110 mg/kg i.p. followed by various doses of a compound of the present invention given by gavage for 14 days, beginning on the day of induction of diabetes.\nFollowing an overnight fast (water ad lib) the animals in groups II-IV were given by i.p. injection 110 mg STZ per kg body weight. The STZ was dissolved in cold citric acid, 0.03M, pH 4.5 and injected within 5 minutes of being dissolved. Control rats (group I) were injected with buffer only.\nTwo days after STZ injection plasma glucose levels (from the tail vein) were determined following a 4 hour fast. Excluded from the study were animals whose plasma glucose was below 300 mg/dl.\nOn the morning of the 14th day following STZ injection the animals were fasted 4 hours prior to sacrificing by decapitation. The blood was collected into heparin containing tubes and placed on ice. Both lenses and sciatic nerves were removed immediately, weighed, frozen, and stored at -20° C. until analyzed for sorbitol. The RBCs were collected by centrifugation, the plasma was removed and the cells were washed once with 10 volumes of cold saline. The washed packed RBCs were divided into 1 mL aliquots, extracted with cold perchloric acid and the acid extracts were stored at -20° C. until analyzed for sorbitol."}, "[2]": {"tested_on": "dulcitol accumulation", "assay": "lowering of dulcitol (galactitol) accumulation in tissues of galactosemic rats (Table I, IN VIVO)", "design": "species or system rat (Sprague-Dawley)", "conditions": "for % Lowering dulcitol accumulation IN VIVO, D: diaphragm; for % Lowering dulcitol accumulation IN VIVO, D / % Lowering dulcitol accumulation IN VIVO, L: galactosemic rats, 4 days; for % Lowering dulcitol accumulation IN VIVO, L: lens", "source_text": "Such experiments are exemplified hereinbelow after the listing of the following general comments pertaining to these experiments:\n(a) Four or more groups of six male rats, […], Sprague-Dawley strain, were used. The first group, the control group, was fed a mixture of laboratory chow (rodent Laboratory Chow, Purina) and […] at 20% (w/w %) concentration. […] The test compound was either admixed to the diet or administered by gavage. In experiments involving compound administration in the diet, the average dose administered was calculated from the actual food intake of the animals in each group. The concentration of galactose in the diet of the treated groups was the same as that for the untreated galactosemic group.\n(b) After four days, the animals were killed by decapitation. The eyeballs were removed and punctured with a razor blade; the freed lenses were rolled gently on filter paper and weighed. The sciatic nerves were dissected as completely as possible and weighed. Both tissues when frozen can be kept up to two weeks before being analyzed for galactitol.\nOnly two minor reagent changes were made: (a) the rinsing mixture was an aqueous 5% (w/v) trichloroacetic acid solution and (b) the stock solution was prepared by dissolving 25 mg of dulcitol in 100 mL of an aqueous trichloroacetic acid solution. [N.B.: For each experiment the average value found in the tissue from rats fed the glucose diet was subtracted from the individual values found in the corresponding tissue in galactose-fed rats to obtain the amount of polyol accumulated.]\nThe figures under L, N, and D represent the percentage decrease of galactitol accumulation in the tissues of the lens, sciatic nerve, and diaphragm, respectively, for treated rats as compared to untreated rats."}, "[3]": {"biological_target": "T1, aldose reductase (Bos taurus, UniProt P16116)", "T1 construct": "preparation of the enzyme from bovine lens; from tissue; host or cells: bovine lens", "assay": "aldose reductase inhibiting effects in vitro (Table I, IN VITRO)", "type": "biochemical, bovine (lens)", "conditions": "read-out: % Inhibition IN VITRO", "source_text": "In the present case the procedure of Hayman and Kinoshita was modified in that the final chromatography step was omitted in the preparation of the enzyme from bovine lens. The results are tabulated in Table I under the heading IN VITRO."}}, "note": "Values joined by “and” are separate entries in the source; they are usually repeats but may differ in a detail not shown here. Equal entries are not always repeated."}
{"compound": "COc1ccc2c(C(=O)N(C)CC(N)=O)c(F)ccc2c1C(F)(F)F", "note": "[Example 1, N-[(Aminocarbonyl)methyl]-2-fluoro-6-methoxy-N-methyl-5-(trifluoromethyl)-1-naphthalenecarboxamide]", "values": [{"measurement": "% Lowering of Sciatic Nerve Polyol Accumulation, Fructose", "setting": "[1]; 3 mg/kg", "result": 69, "unit": "%"}, {"measurement": "% Lowering of Sciatic Nerve Polyol Accumulation, Sorbital", "setting": "[1]; 3 mg/kg", "result": 50, "unit": "%"}, {"measurement": "% Lowering of Sciatic Nerve Polyol Accumulation, Fructose", "setting": "[1]; 6 mg/kg", "result": 87, "unit": "%"}, {"measurement": "% Lowering of Sciatic Nerve Polyol Accumulation, Sorbital", "setting": "[1]; 6 mg/kg", "result": 77, "unit": "%"}, {"measurement": "% Lowering of Sciatic Nerve Polyol Accumulation, Fructose", "setting": "[1]; 9 mg/kg", "result": 94, "unit": "%"}, {"measurement": "% Lowering of Sciatic Nerve Polyol Accumulation, Sorbital", "setting": "[1]; 9 mg/kg", "result": 79, "unit": "%"}, {"measurement": "% Lowering of Sciatic Nerve Polyol Accumulation, Fructose", "setting": "[1]; 12 mg/kg", "result": 98, "unit": "%"}, {"measurement": "% Lowering of Sciatic Nerve Polyol Accumulation, Sorbital", "setting": "[1]; 12 mg/kg", "result": 78, "unit": "%"}, {"measurement": "% Lowering of Sciatic Nerve Polyol Accumulation, Fructose", "setting": "[1]; 20 mg/kg", "result": 105, "unit": "%"}, {"measurement": "% Lowering of Sciatic Nerve Polyol Accumulation, Sorbital", "setting": "[1]; 20 mg/kg", "result": 84, "unit": "%"}, {"measurement": "results in the sciatic nerve compared with tolrestat", "setting": "[2]; 10 mg/kg/day versus tolrestat at 9 mg/kg/day, sciatic nerve", "result": "comparable results"}, {"measurement": "% Lowering dulcitol accumulation IN VIVO, D", "setting": "[2]; 5 mg/kg", "result": 32, "unit": "%"}, {"measurement": "% Lowering dulcitol accumulation IN VIVO, D", "setting": "[2]; 10 mg/kg", "result": "53% and 58%"}, {"measurement": "% Lowering dulcitol accumulation IN VIVO, D", "setting": "[2]; 12 mg/kg", "result": 52, "unit": "%"}, {"measurement": "% Lowering dulcitol accumulation IN VIVO, D", "setting": "[2]; 14 mg/kg", "result": 62, "unit": "%"}, {"measurement": "% Lowering dulcitol accumulation IN VIVO, D", "setting": "[2]; 15 mg/kg", "result": 57, "unit": "%"}, {"measurement": "% Lowering dulcitol accumulation IN VIVO, D", "setting": "[2]; 19 mg/kg", "result": 63, "unit": "%"}, {"measurement": "% Lowering dulcitol accumulation IN VIVO, D", "setting": "[2]; 24 mg/kg", "result": 75, "unit": "%"}, {"measurement": "% Lowering dulcitol accumulation IN VIVO, L", "setting": "[2]; 5 mg/kg", "result": "N.S."}, {"measurement": "% Lowering dulcitol accumulation IN VIVO, L", "setting": "[2]; 10 mg/kg", "result": "N.S."}, {"measurement": "% Lowering dulcitol accumulation IN VIVO, L", "setting": "[2]; 12 mg/kg", "result": "N.S."}, {"measurement": "% Lowering dulcitol accumulation IN VIVO, L", "setting": "[2]; 14 mg/kg", "result": "N.S."}, {"measurement": "% Lowering dulcitol accumulation IN VIVO, L", "setting": "[2]; 15 mg/kg", "result": "N.S."}, {"measurement": "% Lowering dulcitol accumulation IN VIVO, L", "setting": "[2]; 19 mg/kg", "result": "N.S."}, {"measurement": "% Lowering dulcitol accumulation IN VIVO, L", "setting": "[2]; 24 mg/kg", "result": "N.S."}, {"measurement": "inhibition at 10 µM", "setting": "[3]; 10^-5 M", "result": 1, "unit": "%"}, {"measurement": "inhibition at 1 µM", "setting": "[3]; 10^-6 M", "result": 0, "unit": "%"}]}
{"compound": "COc1ccc2c(C(=S)N(C)CC(=O)O)cccc2c1C(F)(F)F", "note": "[tolrestat, N-[[6-methoxy-5-(trifluoromethyl)-1-naphthalenyl]thioxomethyl]-N-methylglycine, reference compound]", "values": [{"measurement": "% Lowering of Sciatic Nerve Polyol Accumulation, Fructose", "setting": "[1]; 6 mg/kg", "result": 58, "unit": "%"}, {"measurement": "% Lowering of Sciatic Nerve Polyol Accumulation, Sorbital", "setting": "[1]; 6 mg/kg", "result": 53, "unit": "%"}, {"measurement": "% Lowering dulcitol accumulation IN VIVO, L", "setting": "[2]; 9 mg/kg", "result": "N.S."}]}
